Measured values: patent publication US20150216167A1 (Heinrich Heine Universitat Dusseldorf, priority 2011, published 2015)

What was measured:
[1] = target: T1, C4-PEPC (PEP carboxylase from F. trinervia) (Flaveria trinervia, UniProt P30694); test: Spectrophotometric coupled assay with malate dehydrogenase, purified PEP carboxylases; type: biochemical; details: C4 (F. trinervia) versus C3 (F. pringlei) enzyme
T1 construct: histidine tag; made in house; host or cells: E. coli
T1 sequence (P30694 1-966): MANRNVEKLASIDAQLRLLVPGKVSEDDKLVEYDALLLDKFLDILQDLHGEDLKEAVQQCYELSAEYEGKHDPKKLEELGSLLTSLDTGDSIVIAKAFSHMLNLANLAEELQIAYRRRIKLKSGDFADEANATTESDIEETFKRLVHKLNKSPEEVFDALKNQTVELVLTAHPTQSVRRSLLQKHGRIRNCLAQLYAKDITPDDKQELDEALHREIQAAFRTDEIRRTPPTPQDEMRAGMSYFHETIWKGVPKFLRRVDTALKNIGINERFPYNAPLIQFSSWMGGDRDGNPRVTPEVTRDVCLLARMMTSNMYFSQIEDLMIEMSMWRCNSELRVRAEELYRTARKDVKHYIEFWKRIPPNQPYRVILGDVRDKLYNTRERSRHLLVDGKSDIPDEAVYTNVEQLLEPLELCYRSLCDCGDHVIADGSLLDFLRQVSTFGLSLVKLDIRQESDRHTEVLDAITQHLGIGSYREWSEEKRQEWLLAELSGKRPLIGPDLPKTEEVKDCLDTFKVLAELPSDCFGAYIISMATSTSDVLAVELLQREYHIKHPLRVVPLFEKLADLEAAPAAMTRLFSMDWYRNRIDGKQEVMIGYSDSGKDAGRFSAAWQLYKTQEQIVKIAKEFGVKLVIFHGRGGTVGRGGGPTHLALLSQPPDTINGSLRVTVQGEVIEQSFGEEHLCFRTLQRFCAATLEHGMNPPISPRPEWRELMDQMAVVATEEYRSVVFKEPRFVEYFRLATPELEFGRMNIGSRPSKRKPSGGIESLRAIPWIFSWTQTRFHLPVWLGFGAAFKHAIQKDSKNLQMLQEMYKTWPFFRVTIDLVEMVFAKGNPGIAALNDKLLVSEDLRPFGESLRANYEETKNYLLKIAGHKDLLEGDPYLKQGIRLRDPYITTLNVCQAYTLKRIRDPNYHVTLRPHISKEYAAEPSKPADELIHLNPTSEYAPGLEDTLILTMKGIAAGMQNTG
Text: Inhibition of purified PEP carboxylases from F. pringlei and F. trinervia by compounds selected from the VDS was monitored by a spectrophotometric coupled assay with malate dehydrogenase which reduces the oxaloacetate formed by PEP carboxylase to malate. The simultaneous oxidation of NADH is followed at 340 nm with standard optical equipment. The concentration of the inhibitors selected from the VDS was varied in the coupled assay to determine the half maximal inhibitory concentration (IC50).
Inhibition of purified PEP carboxylases from F. pringlei and F. trinervia by compounds selected from the VDS was monitored by a spectrophotometric coupled assay with malate dehydrogenase which reduces the oxaloacetate formed by PEP carboxylase to malate. The simultaneous oxidation of NADH is followed at 340 nm with standard optical equipment. The concentration of the inhibitors selected from the VDS was varied in the coupled assay to determine the half maximal inhibitory concentration (1050).

PEP carboxylase = details: Pairoba et al. (1996); cited from earlier work
[2] = high clog values; cited from earlier work
[3] = system: pyruvate phosphate dikinase (PPDK); details: cited from earlier work
bile salt hydrolase = details: cited from earlier work

| Compound | inhibition of PEP carboxylase from C4 plant Amaranthus viridis (PEP carboxylase) | further results |
| --- | --- | --- |
| Oc1cc(O)c2c(c1)O[C@H](c1ccc(O)c(O)c1)[C@@H](O)C2 [compound 1, (2R,3S)-2-(3,4-dihydroxyphenyl)-3,4-dihydro-2H-chromene-3,5,7-triol] |  | Selective Inhibition of a C4-PEPC ([1]; measured at 50 micromolar and 500 micromolar, FIG. 2): Selective Inhibition |
| Nc1nc2ncc(CNc3ccc(C(=O)N[C@@H](CCC(=O)O)C(=O)O)cc3)nc2c(=O)[nH]1 [compound 4, Folic Acid] |  | Selective Inhibition of a C4-PEPC ([1]; measured at 0.025 mM, FIG. 3): Selective Inhibition |
| O=c1c(O)c(-c2ccc(O)c(O)c2)oc2cc(O)ccc12 [fisetin] | inhibited |  |
| C=C1CCC[C@H]2[C@](C)(CC3=C(O)C(=O)C=C(OC)C3=O)[C@@H](C)CC[C@]12C [ilimaquinone] |  | solubility in water [2]: low solubility in water |
| O=c1c(O)c(-c2ccc(O)cc2)oc2cc(O)cc(O)c12 [kaempferol] | inhibited |  |
| O=c1c(O)c(-c2ccc(O)cc2O)oc2cc(O)cc(O)c12 [morin] | inhibited |  |
| O=c1c(O)c(-c2cc(O)c(O)c(O)c2)oc2cc(O)cc(O)c12 [myricetin] | inhibited |  |
| O=c1c(O)c(-c2ccc(O)c(O)c2)oc2cc(O)cc(O)c12 [quercetin] | inhibited |  |
| C/C=C(\C)c1cc(O)c(C)c2c1Oc1cc(O)cc(C)c1C(=O)O2 [unguinol] |  | selective inhibitors of PPDK ([3]; PPDK from C4 plants maize, millet and proso millet): selective inhibitors; IC50 ([3]; isolated enzyme, read-out: half maximal inhibitory concentration (1050)): 40 µM; inhibits the enzyme bile salt hydrolase (bile salt hydrolase): inhibits |
| baicalein/baicalin | inhibited |  |
